In ChEMBL document CHEMBL1157539, “Thousands of chemical starting points for antimalarial lead identification” (Nature, 2010):

Test system: Plasmodium falciparum
Experiment: GSK_TCMDC: Inhibition of Plasmodium falciparum 3D7 in whole erythrocytes, using parasite LDH activity as an index of growth.
Assay type: functional, organism-based
Conditions: Plasmodium falciparum, 3D7

Row | SMILES | XC50 [µM]
1 | COCCN1CCC(N(Cc2ccc(-c3ccc(C(F)(F)F)cc3)cc2)C(=O)Cn2c(CCc3cccc(F)c3F)cc(=O)c3c2CCC3)CC1 | 1.32
2 | COc1ccccc1CCNC(=O)c1cnc(N2CCN(c3ccncc3)CC2)c(Cl)c1 | 1.15
3 | COC(=O)Nc1cc(C(F)(F)F)ccc1N1CCCC(NS(=O)(=O)c2ccc(C(C)(C)C)cc2)C1 (stereo not drawn) | 0.38
4 | c1ccc(CN2CCCN(c3ccc4c(c3)CCN(Cc3ccc(-c5ncc[nH]5)cc3)CC4)CC2)cc1 | 0.762
5 | CCc1c(CCNCCCCCCNCCc2ccc([N+](=O)[O-])cc2)ccc(OC)c1OC | 0.727
6 | CCCC(CNCc1cccc(OC(F)(F)C(F)F)c1)CNc1cc(=O)c2ccccc2[nH]1 (stereo not drawn) | 0.595
7 | COc1ccc2nccc([C@@H](O)CN3CCC(NC(=O)c4ccc(Oc5ccccc5)cc4)CC3)c2c1 | 1.38
8 | CC1(C)N=C(N)N=C(N)N1OCc1ccc2c(c1)OCO2 | 0.00368
9 | O=C(/C=C/c1ccc(Cl)c(Cl)c1)N1CCC(CN2CCC(Cc3cc4ccccc4[nH]3)CC2)CC1 | 0.63
10 | CC[C@H]1CN2CC[C@H]1C[C@H]2[C@H](O)c1cc(-c2ccccc2F)nc2ccc(OC)cc12 | 0.0789
11 | COCc1ccccc1C(=O)NCCOc1cc(C)cc(C)c1 | 0.353
12 | CCc1cn2c3c(cc(C(=O)N[C@@H](Cc4cccc(F)c4)[C@H](O)CNC4CC4)cc13)N(C)S(=O)(=O)CC2 | 0.143
13 | CCCCCCn1c2c(c(=N)c3c1CCC3)CCCC2 | 0.291
14 | COC(=O)c1ccc(CC(C)NCC(O)c2cccc(C(F)(F)F)c2)cc1F (stereo not drawn) | 1.06
15 | c1ccc(COc2ccc(Cn3ccc(-c4ccc(-n5ccnc5)cc4)n3)cc2)cc1.c1ccc(COc2ccc(Cn3nccc3-c3ccc(-n4ccnc4)cc3)cc2)cc1 | 1.02
16 | Cc1cc(N2CCOCC2)nc2ccc(NC(=O)c3cccc([N+](=O)[O-])c3)cc12 | 0.89
17 | CCN(CC)c1ccc(C(c2ccc(N(CC)CC)cc2)c2cccc([N+](=O)[O-])c2)cc1 | 0.381
18 | COc1ccc2[nH]c(C)cc(=NN=Cc3cccc(Cl)c3)c2c1 | 0.632
19 | Cc1noc(C)c1-c1ccc2c(Nc3ccccc3C(C)(C)C)c(C(=O)NC3CCCC3)cnc2c1 | 1.04
20 | Oc1ccc(CCNc2nc(NCc3ccccc3-c3cccc(Cl)c3)nc(N3CCNCC3)n2)cc1 | 1.28
21 | CC(Cc1ccc(Sc2ccccc2)cc1)NCC(O)c1cccc(C(F)(F)F)c1 (stereo not drawn) | 0.589
22 | CCCC(=O)NC(c1cccs1)c1cc(Cl)c2cccnc2c1O (stereo not drawn) | 0.848
23 | CCCCCCCn1c(=N)n(CC(O)c2ccc(Cl)c(Cl)c2)c2ccccc21 (stereo not drawn) | 0.782
24 | Nc1ncc(Cc2ccc3c(ccc4ccccc43)c2)c(N)n1 | 0.758
25 | O=C(NCCc1ccccc1)N(Cc1ccc(-c2cccc(CN3CCNCC3)c2)cc1)C1CCN(Cc2ccccc2)CC1 | 1.36

Row | SMILES | XC50 [µM]
26 | Cc1nc2ccc3ccc(CNc4ccc(C#N)cc4)cc3c2c(=O)[nH]1 | 1.44
27 | COc1ccc(CNCc2cccc(-c3ccc(-c4nc5cc(C(F)(F)F)ccc5[nH]4)cc3)c2)cc1 | 0.126
28 | Cc1cc2cc(CNCCc3ccccc3Br)ccc2nc1N | 0.243
29 | CC(=O)N[C@H](C(=O)Nc1ccc(-c2ccc(-c3nc4cc(C(F)(F)F)ccc4[nH]3)cc2)cc1)C(C)C | 0.889
30 | COc1ccc(CSC2CCCCC23NC(=S)NC3=S)cc1 (stereo not drawn) | 0.85
31 | c1ccc(C(c2ccccc2)N2CCN(C(c3cccnc3)c3nnnn3C3CCCC3)CC2)cc1 (stereo not drawn) | 1.08
32 | COc1ccc2nccc(N3CCC(CCNCc4cc5c(cn4)OCCO5)CC3)c2n1 | 0.224
33 | [O-][s+]1c(Cl)c(-c2ccc(Cl)cc2)c2ccc(Cl)cc21 (stereo not drawn) | 0.993
34 | CN(CCON1C(=N)N=C(N)NC1(C)C)c1ccccc1 | 0.0194
35 | Cc1ccc(NC(=O)c2cccc(CN3CCCN(CC4CCCCC4)CC3)c2)cc1F | 0.596
36 | COc1ccc2nccc(NC(=O)CNCc3ccc(-c4ccccc4)cc3)c2c1 | 0.769
37 | COc1cc2nc(NCC3CCN(C(=O)c4ccc(-c5ccc(C(=O)N(C)C)cc5C)cc4)CC3)nc(N)c2cc1OC | 0.948
38 | Cc1cccc2nc(-c3ccc(-c4ccc(CNCc5ccccc5)cc4)s3)[nH]c12 | 0.208
39 | c1cc(CN2CCCCC2)cc(-c2cccc(-c3nc4ccccc4[nH]3)c2)c1 | 0.828
40 | Cc1cc(Nc2cccc(Cl)c2)nc2ccc(NC(=O)c3ccc(=O)[nH]c3)cc12 | 0.995
41 | N#CCSc1nnc(-c2ccccc2)c2ccccc12 | 0.723
42 | COc1ccccc1C1CCN(C2CCC(NC(=O)/C=C/c3ccc4c(c3)OC(F)(F)O4)CC2)CC1 (stereo not drawn) | 0.836
43 | CCNc1cc(C(=O)N[C@@H](Cc2ccccc2)[C@H](O)CNC23CCC(CC2)CC3)cc(N2CCCCS2(=O)=O)c1 | 0.0633
44 | CN(Cc1ccncc1)C(Cc1ccccc1)C1CCN(Cc2ccc(O)c(Cl)c2)CC1 (stereo not drawn) | 0.747
45 | COc1cccc(OC)c1-c1ccccc1NC(=O)N1CCCc2cc(C)ccc21 | 0.823
46 | CCOc1ccc2c(=NN=Cc3ccc(OC)c(OC)c3)cc(C)[nH]c2c1 | 0.7
47 | O=C(N[C@H]1CCN(CCc2ccc(O[C@H]3CCNC3)c(Cl)c2)C1)c1ccc(Cl)c(Cl)c1 | 0.89
48 | COc1ccc(-c2cccc(NC(=O)c3ccc(C#N)cc3)c2)cc1CN1CCN(C)CC1 | 0.99
49 | O=C(/C=C/c1ccc(Cl)c(Cl)c1)NCCCCCN1CC[C@H](NC(=O)c2sc3ccccc3c2Cl)C1 | 0.809
50 | Cc1cc(F)ccc1N(c1nc(-c2cc(Cl)ccc2Cl)cs1)C1CCNC1 (stereo not drawn) | 1.01

Row | SMILES | XC50 [µM]
51 | Cc1cc(C(=O)Nc2ccc3c(c2)CCN3C2CCN(Cc3csc4ccccc34)C2)no1 (stereo not drawn) | 0.119
52 | COC(=O)c1cc(/C(C)=N/Nc2nc3ccccc3[nH]2)ccc1O | 0.676
53 | CCOc1cccc(C(=O)Nc2cccc(CN3CCCN(Cc4cccc(O)c4)CC3)c2)c1 | 1.09
54 | CC(=O)Nc1cc(C(=O)Nc2cccc(-c3cccc(-c4nc5cc(C(F)(F)F)ccc5[nH]4)c3)c2)ccc1C | 0.215
55 | COc1ccc2nccc([C@@H](O)CN3CCC(NCc4ccc5c(c4)OCCO5)CC3)c2c1 | 0.288
56 | Cc1cc(N)c2cc(NC(=O)c3cc4ccccc4s3)ccc2n1 | 0.115
57 | CC[C@H]1CN2CC[C@@H]1C[C@H]2[C@H](O)c1cc[n+]([O-])c2ccc(OC)cc12 | 0.748
58 | O=C(NC1CC1)c1ccc(N2CCCCN2CCc2ccccc2)c(C(F)(F)F)c1 | 0.622
59 | CCNc1cc(C(=O)N[C@@H](Cc2ccccc2Cl)[C@H](O)CNC2CCCCC2)cc(N2CCCCS2(=O)=O)c1 | 0.803
60 | CCCSc1nc2c(c(=O)n1Cc1ccco1)C1(CCCCC1)Cc1ccccc1-2 | 0.424
61 | COC(=O)c1cc(C(O)CNC(C)CCc2cccc(F)c2)ccc1O (stereo not drawn) | 1.18
62 | O=C(NCCN1CCCC1)c1cccc(Nc2nccc(Nc3ccc(Oc4ccccc4)cc3)n2)c1 | 0.654
63 | c1ccc(CNc2nc(NCCN3CCCCC3)nc3ccccc23)cc1 | 1.02
64 | Cc1cccc2nc(-c3ccc(-c4cccc(CN5CCCCC5)c4)s3)[nH]c12 | 0.468
65 | CN1CCC(N2CCN(Cc3ccc(-c4cccc(-c5nc6cc(F)ccc6[nH]5)c4)cc3)CC2)CC1 | 0.173
66 | COc1ccc(C(C(=O)NC2CCN(C[C@H](O)c3ccnc4ccc(OC)cc34)CC2)N2CCN(c3ccc(F)cc3)CC2)cc1 (stereo partly drawn) | 0.214
67 | CC(C)(C)c1ccc(-c2ccccc2CNC(=O)c2cccc(O)c2)cc1 | 0.267
68 | Cc1ccccc1OCC(=O)Nc1ccc(-c2nc3cc4ccccc4cc3[nH]2)cc1 | 0.753
69 | CC(C)(C)CCN1CCC(CNC(=O)c2cc(-c3cccc(C(F)(F)F)c3)cs2)C1 (stereo not drawn) | 0.887
70 | Cc1cc(CN2CCC(N3CC(c4ccccc4)(c4ccccc4)OC3=O)C2)ccc1O (stereo not drawn) | 0.776
71 | COc1ccc2nccc([C@@H](O)CN3CCC(NCc4nc5ccccc5[nH]4)CC3)c2c1 | 1.07
72 | CC(=O)Oc1c(C2C=CCCC2)c(OC(C)=O)c2ccccc2c1OC(C)=O (stereo not drawn) | 0.605
73 | Cc1cc(=NN=Cc2ccc(Cl)cc2)c2cc(F)ccc2[nH]1 | 0.828
74 | CC(C(=O)Nc1ccc(Br)cc1Br)N1CCN(C(=O)c2ccco2)CC1 (stereo not drawn) | 0.75
75 | COc1ccc(Cc2c(Cl)nc3nc(N)nc(N)c3c2C)c(OC)c1OC | 0.725

Row | SMILES | XC50 [µM]
76 | COc1cccc(C(=O)NCc2nnc(S)n2-c2ccc(Cl)c(Cl)c2)c1 | 0.173
77 | O=C(NCC1CCN(Cc2ccc3c(c2)OCCO3)C1)c1cc(-c2cccc(C(F)(F)F)c2)cs1 (stereo not drawn) | 0.978
78 | Cc1ccc(Cn2ncc(NC3CCNCC3)c(Cl)c2=O)cc1NC(=O)Nc1ccc(-c2ccccc2)cc1 | 0.657
79 | C=CC(=O)Nc1ccc(Cl)cc1C(O)c1ccccc1 (stereo not drawn) | 0.182
80 | Cc1cc(Nc2ccc(C)c(Cl)c2)n2ncnc2n1 | 0.552
81 | Cc1nc2nc(N)nc(N)c2c(C)c1Cc1ccccc1Br | 0.0602
82 | N#Cc1cccc(Nc2nccc(NCC(O)c3ccc(C(F)(F)F)cc3)n2)c1 (stereo not drawn) | 0.556
83 | Cc1nc2ccccc2n1C1CC2CCC(C1)N2Cc1nccn1-c1ccccc1 (stereo not drawn) | 0.366
84 | NCC(NC(=O)c1ccc(-c2c[nH]c3ncccc23)s1)c1ccccc1 (stereo not drawn) | 0.546
85 | COc1ccc(Cn2c(Nc3cccc(C(F)(F)F)c3)nc3cc(C(=O)NCCN4CCCC4)ccc32)cc1Cl | 0.83
86 | COc1cc(OC)nc(-c2cccc(NC(=O)c3ccc4c(=O)n(CCN5CCCCC5)cnc4c3)c2)n1 | 0.744
87 | Cc1cc(OCCCN2CCC(NS(=O)(=O)c3cccc(Br)c3)C2)c2ccccc2n1 (stereo not drawn) | 1.21
88 | COc1cc(CNCCCCCCNCc2cc(OC)c(OC)c3ccccc23)c2ccccc2c1OC | 0.235
89 | CCN1CCN(c2cc(C)c3cc(NC(=O)c4cc(OC)cc(OC)c4)ccc3n2)CC1 | 0.156
90 | CCOc1ccc(-n2nc3c(Cl)nnc(-c4ccccc4)c3c2-c2ccccc2)cc1 | 0.226
91 | Cc1ccc2nc(-c3ccc(/C=C/C(=O)NC4CCN(Cc5ccccc5)CC4)cc3)[nH]c2c1C | 0.632
92 | CC[C@H](NC(=O)c1c(CC2CCN(CC(C)=O)CC2)c(-c2ccccc2)nc2ccccc12)c1ccccc1 | 0.381
93 | Cc1cnc(-c2ccc(NC(=O)c3coc4ccc(N5CC(C)N(C)C(C)C5)cc34)cc2)o1 (stereo not drawn) | 0.645
94 | CN1CC=C(c2c[nH]c3ccc(Sc4ccccc4)cc23)CC1 | 0.356
95 | COc1ccc2nc(-c3cc(-c4ccc(NC(=O)C(C)C)cc4)cnc3N)[nH]c2c1 | 0.557
96 | N#Cc1ccc(-c2ccc(C(=O)NCCCCN3CCC(n4cnc5ccccc54)CC3)cc2)cc1 | 0.91
97 | Cc1c(C(=O)Nc2cc(Sc3ccc(F)cc3)cc([N+](=O)[O-])c2)sc2ncn(Cc3ccccc3F)c(=O)c12 | 0.798
98 | Cc1ccccc1Nc1nc(NCCc2ccccc2)nc2ccccc12 | 1.26
